PubChem BioAssay (NCI)
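Five concentrations, 48 hours, 96-well plates. TGI: concentration producing complete growth inhibition.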

Key:
Experiment in all cases: inhibition of tumour cell growth, NCI panel, 48 h
OVCAR-4 ovarian = system: OVCAR-4 ovarian
SN12C renal = system: SN12C renal
SF-268 CNS = system: SF-268 CNS
NCI/ADR-RES ovarian = system: NCI/ADR-RES ovarian
CCRF-CEM leukemia = system: CCRF-CEM leukemia
MALME-3M melanoma = system: MALME-3M melanoma
NCI-H23 lung = system: NCI-H23 lung
NCI-H460 lung = system: NCI-H460 lung
CAKI-1 renal = system: CAKI-1 renal
A549 NSCLC = system: A549 NSCLC
SW-620 colon = system: SW-620 colon
SK-MEL-5 melanoma = system: SK-MEL-5 melanoma
KM12 colon = system: KM12 colon
HOP-92 NSCLC = system: HOP-92 NSCLC
NCI-H522 lung = system: NCI-H522 lung
A498 renal = system: A498 renal
UO-31 renal = system: UO-31 renal
MOLT-4 leukemia = system: MOLT-4 leukemia
M19-MEL melanoma = system: M19-MEL melanoma
XF 498 CNS = system: XF 498 CNS

With `O/N=C\c1cc(O)c(O)c(/C=N/O)c1` the TGI (OVCAR-4 ovarian) was > 100 µM, the TGI (SN12C renal) was > 100 µM and the TGI (SF-268 CNS) was > 100 µM. For the same compound, the TGI (NCI/ADR-RES ovarian) was > 100 µM, the TGI (CCRF-CEM leukemia) was > 100 µM and the TGI (MALME-3M melanoma) was > 100 µM. The TGI (NCI-H23 lung) was > 100 µM, the TGI (NCI-H460 lung) was > 100 µM and the TGI (CAKI-1 renal) was > 100 µM. The TGI (A549 NSCLC) was > 100 µM, the TGI (SW-620 colon) was > 100 µM and the TGI (SK-MEL-5 melanoma) was > 100 µM. For the same compound, the TGI (KM12 colon) was > 100 µM, the TGI (HOP-92 NSCLC) was > 100 µM and the TGI (NCI-H522 lung) was 71.9 µM. The TGI (A498 renal) was > 100 µM, the TGI (UO-31 renal) was > 100 µM and the TGI (MOLT-4 leukemia) was > 100 µM.
`CN1OC(=O)N(C)C1c1ccccc1` (stereo unspecified) was tested, and the TGI (OVCAR-4 ovarian) was > 100 µM, the TGI (SN12C renal) was > 100 µM and the TGI (SF-268 CNS) was > 100 µM. For the same compound, the TGI (NCI/ADR-RES ovarian) was > 100 µM, the TGI (CCRF-CEM leukemia) was > 100 µM and the TGI (MALME-3M melanoma) was > 100 µM. The TGI (NCI-H23 lung) was > 100 µM, the TGI (M19-MEL melanoma) was > 100 µM and the TGI (NCI-H460 lung) was > 100 µM. The TGI (A549 NSCLC) was > 100 µM, the TGI (XF 498 CNS) was > 100 µM and the TGI (SW-620 colon) was > 100 µM. For the same compound, the TGI (SK-MEL-5 melanoma) was > 100 µM, the TGI (KM12 colon) was > 100 µM and the TGI (HOP-92 NSCLC) was > 100 µM. For the same compound, the TGI (NCI-H522 lung) was > 100 µM, the TGI (A498 renal) was > 100 µM and the TGI (UO-31 renal) was > 100 µM. The TGI (MOLT-4 leukemia) was > 100 µM.
With `CNC(=O)CN1CC(=O)N(C)C(=O)C1` the TGI (OVCAR-4 ovarian) was > 100 µM, the TGI (CCRF-CEM leukemia) was > 100 µM and the TGI (MALME-3M melanoma) was > 100 µM. For the same compound, the TGI (NCI-H23 lung) was > 100 µM, the TGI (M19-MEL melanoma) was > 100 µM and the TGI (CAKI-1 renal) was > 100 µM. The TGI (XF 498 CNS) was > 100 µM, the TGI (SW-620 colon) was > 100 µM and the TGI (SK-MEL-5 melanoma) was > 100 µM. For the same compound, the TGI (KM12 colon) was > 100 µM, the TGI (HOP-92 NSCLC) was > 100 µM and the TGI (NCI-H522 lung) was > 100 µM. For the same compound, the TGI (UO-31 renal) was > 100 µM and the TGI (MOLT-4 leukemia) was > 100 µM.
`COc1ccc2c(c1)c1cc(OC)ccc1n2CCCCOc1ccc(-c2c3ccccc3c(-c3ccc(OCCCCn4c5ccc(OC)cc5c5cc(OC)ccc54)cc3)c3ccccc23)cc1` was tested, and the TGI (OVCAR-4 ovarian) was > 100 µM, the TGI (SN12C renal) was > 100 µM and the TGI (SF-268 CNS) was > 100 µM. For the same compound, the TGI (CCRF-CEM leukemia) was > 100 µM, the TGI (MALME-3M melanoma) was > 100 µM and the TGI (M19-MEL melanoma) was > 100 µM. The TGI (CAKI-1 renal) was > 100 µM, the TGI (A549 NSCLC) was > 100 µM and the TGI (XF 498 CNS) was > 100 µM. The TGI (SW-620 colon) was > 100 µM, the TGI (KM12 colon) was > 100 µM and the TGI (HOP-92 NSCLC) was > 100 µM. For the same compound, the TGI (NCI-H522 lung) was > 100 µM, the TGI (UO-31 renal) was > 100 µM and the TGI (MOLT-4 leukemia) was > 100 µM.
For `COc1cc2c(cc1OC)CCN=C2`, the TGI (OVCAR-4 ovarian) was > 100 µM, the TGI (SN12C renal) was > 100 µM and the TGI (NCI/ADR-RES ovarian) was > 100 µM. For the same compound, the TGI (CCRF-CEM leukemia) was > 100 µM, the TGI (MALME-3M melanoma) was > 100 µM and the TGI (NCI-H23 lung) was > 100 µM. The TGI (NCI-H460 lung) was > 100 µM, the TGI (CAKI-1 renal) was > 100 µM and the TGI (SW-620 colon) was > 100 µM. The TGI (SK-MEL-5 melanoma) was > 100 µM, the TGI (KM12 colon) was > 100 µM and the TGI (HOP-92 NSCLC) was > 100 µM. The TGI (A498 renal) was > 100 µM, the TGI (UO-31 renal) was > 100 µM and the TGI (MOLT-4 leukemia) was > 100 µM.
